Article PMC12703733, “Probing Guanidino Pendant or Bridged Groups in Cyclic Antimicrobial Peptides Derived from Temporin L: A Strategy to Improve Efficacy against Gram-Negative Bacteria” (Journal of Medicinal Chemistry, 2025)
In brackets after ≈: the same amount, converted by molar mass. Like-named read-outs stand apart in the source and are kept apart here.

Key:
[1] = type: cell-based, human; conditions: human
Experimental: (§1) For the evaluation of peptides’ cytotoxicity, the human immortalized keratinocytes (HaCaT cells), purchased from AddexBio (San Diego, CA, USA), and BEAS-2B were used. HaCaT cells were cultured in Dulbecco’s modified Eagle’s medium supplemented with 4 mM glutamine (DMEM), 10% heat-inactivated fetal bovine serum (FBS), and 0.1 mg/mL of penicillin and streptomycin, at 37 °C and 5% CO2. BEAS-2B cells were cultured in RPMI, supplemented with 2 mM glutamine (DMEM), 10% heat-inactivated fetal bovine serum (FBS), 1 mM sodium pyruvate, and 0.1 mg/mL of penicillin and streptomycin, at 37 °C and 5% CO2. Cytotoxicity was tested in vitro using a colorimetric assay that relies on the intracellular reduction of the yellow 3-(4,5-dimethylthiazol-2-yl)-2,5-diphenyltetrazolium bromide salt (MTT) by mitochondrial dehydrogenases of metabolically active cells in formazan crystals (purple). About 4 × 10^4 HaCaT and BEAS-2B cells, suspended in DMEM supplemented with 2% FBS, were plated in triplicate wells of a 96-well microtiter plate. The plate was incubated overnight at 37 °C and 5% CO2. Then, the cells were treated with different concentrations of the peptide (from 100 to 3.12 μM) in a fresh serum-free medium for 2 h and for a longer time (24 h). Following peptide treatment, the medium was removed, and MTT (0.5 mg/mL) solution in Hank’s buffer (136 mM NaCl, 4.2 mM Na2HPO4, 4.4 mM KH2PO4, 5.4 mM KCl, 4.1 mM NaHCO3, pH 7.2, supplemented with 20 mM D-glucose) was added to each well of the plate, that was then incubated for 4 h at 37 °C and 5% CO2. The purple formazan crystals were dissolved using acidified 2-propanol and a microplate reader (Infinite M200; Tecan, Salzburg, Austria) was used to measure the absorbance of each well at 570 nm. The percentage of cell viability was calculated compared to the control, which consisted of cells without any peptide treatment (corresponding to 100% viability) and all data represent the mean of three independent experiments ± SEM.

[2] = test system: human keratinocytes (HaCaT cells); type: cell-based
Experimental: as §1

[3] = test system: E. coli ATCC 25922; experiment: microbe, parasite or virus in culture; type: cell-based; conditions: ATCC 25922
Experimental: (§2) Bacterial strains used in this study were the Gram-positive S. aureus ATCC 25923, S. epidermidis ATCC 12228, B. megaterium BM11, S. [NT] 27591, E. faecalis ATCC 29212 and the Gram-negative E. coli ATCC 25922, P. aeruginosa ATCC 27853, A. baumannii ATCC 19606, E. coli D21 and P. aeruginosa PAO1. […] Bacterial cells in the mid log phase were diluted in Muller Hinton (MH) at a concentration of 2 × 10^6 cell/mL. […] Ciprofloxacin was used as antibiotic control. The plate was then incubated at 37 °C. MICs were obtained from three identical readings of four independent experiments.

[4] = test system: S. agalactiae ATCC 27591; experiment: microbe, parasite or virus in culture; type: cell-based; conditions: ATCC 27591
Experimental: as §2

[5] = test system: B. megaterium BM11; experiment: microbe, parasite or virus in culture; type: cell-based; conditions: BM11
Experimental: as §2

[6] = test system: S. aureus ATCC 25923; experiment: microbe, parasite or virus in culture; type: cell-based; conditions: ATCC 25923
Experimental: as §2

[7] = test system: E. coli D21; experiment: microbe, parasite or virus in culture; type: cell-based; conditions: D21
Experimental: as §2

[8] = test system: E. faecalis ATCC 29212; experiment: microbe, parasite or virus in culture; type: cell-based; conditions: ATCC 29212
Experimental: as §2

[9] = test system: P. aeruginosa ATCC 27853; experiment: microbe, parasite or virus in culture; type: cell-based; conditions: ATCC 27853
Experimental: as §2

[10] = test system: A. baumannii ATCC 19606; experiment: microbe, parasite or virus in culture; type: cell-based; conditions: ATCC 19606
Experimental: as §2

[11] = test system: P. aeruginosa PAO1; experiment: microbe, parasite or virus in culture; type: cell-based; conditions: PAO1
Experimental: as §2

[12] = test system: S. epidermidis ATCC 12228; experiment: microbe, parasite or virus in culture; type: cell-based; conditions: ATCC 12228
Experimental: as §2

[13] = circular dichroism; conditions: water; pH ns; 25 °C; 150 uM
[14] = in vitro; type: in vitro ADME
Experimental: Peptide stability was evaluated by modifying previously described procedures. , The assays were performed in human serum and in the presence of proteolytic enzymes such as trypsin and chymotrypsin. For human serum stability, 2 mM peptide stock solutions were prepared in water and mixed with human serum (from male AB plasma, USA origin, sterile-filtered, Merck/Sigma-Aldrich, USA) to obtain a final concentration of 200 μM [human plasma/stock solution (9:1, v/v)]. The mixtures were incubated at 37 ± 1 °C, and 50 μL aliquots were taken at predetermined time intervals (0, 1, 2, 4, 8, and 24 h). Protease activity was quenched by adding 100 μL of acetonitrile (MeCN). The resulting cloudy suspensions were cooled to 4 °C for 30 min and centrifugated at 12,000 rpm for 10 min to remove the serum proteins. Then, the supernatants were analyzed by analytical HPLC (Shimadzu Nexera Liquid Chromatograph LC-30AD) which was equipped with a Phenomenex Kinetex reversed-phase column (C18, 5 μm, 100 Å, 150 mm × 4.6 mm) with a flow rate of 1 mL/min using a gradient of MeCN (0.1% TFA) in water (0.1% TFA), from 10 to 70% over 15 min, and UV detection at 220 nm. For enzyme stability, each peptide peptide (200 μM) was incubated with trypsin (0.5 μM) in PBS 1× (pH 7.2) or with chymotrypsin (0.005 μM) in Tris–HCl (100 mM, pH 7.8). Samples (50 μL) were collected at 0, 1, 2, 4, and 24 h, quenched with 0.5% TFA in water, and analyzed by HPLC under chromatographic conditions as described above. All experiments were conducted in triplicate. The percentage of intact peptides at each time point was determined by integrating the corresponding HPLC peak areas.

[15] = type: cell-based
Experimental: as §1

[16] = isolated enzyme trypsin, pH 7.2

Compound	CC50 at 24 h [1]	viability at 2 h, 6.25 µM ([1]; Cell viability (%))	viability at 2 h, 12.5 µM ([1]; Cell viability (%))	viability at 2 h, 25 µM ([1]; Cell viability (%))	viability at 2 h, 50 µM ([1]; Cell viability (%))	viability at 2 h, 100 µM ([1]; Cell viability (%))	viability at 24 h, 3.12 µM ([1]; Cell viability (%))	viability at 24 h, 6.25 µM ([1]; Cell viability (%))	viability at 24 h, 12.5 µM ([1]; Cell viability (%))	viability at 24 h, 25 µM ([1]; Cell viability (%))	viability at 24 h, 50 µM ([1]; Cell viability (%))	viability at 24 h, 100 µM ([1]; Cell viability (%))	MIC [3]	MIC [4]	MIC [5]	MIC [6]	MIC [7]	MIC [8]	MIC [9]	MIC [10]	also measured
CC[C@H](C)[C@H](NC(=O)[C@H](CCCNC(=N)N)NC(=O)[C@@H]1CCCCNC(=N)NCCCC[C@H](NC(=O)[C@H](Cc2ccccc2)NC(=O)[C@H](Cc2c[nH]c3ccccc23)NC(=O)[C@@H]2CCCN2C(=O)[C@@H](NC(=O)[C@@H](N)Cc2ccccc2)C(C)C)C(=O)N[C@@H](CCCCN)C(=O)N[C@@H](Cc2ccccc2)C(=O)N[C@H](CC(C)C)C(=O)N1)C(=O)N[C@@H](CC(C)C)C(N)=O [Peptide 11, FVPWF{KKFlK}RIL]	21.3 µM	98%	86%	57%	35%	10%	98 ± 4%	97 ± 3%	87 ± 3%	35 ± 3%	5 ± 3%	2 ± 1%	6.25 µM (≈ 10.9 µg/mL)	3.12 µM (≈ 5.45 µg/mL)	1.56 µM (≈ 2.72 µg/mL)	3.12 µM (≈ 5.45 µg/mL)	12.5 µM (≈ 21.8 µg/mL)	12.5 µM (≈ 21.8 µg/mL)	50 µM (≈ 87.3 µg/mL)	1.56 µM (≈ 2.72 µg/mL)	cytotoxicity (in words) [2]: Low cytotoxicity (up to 25 μM); MIC [11]: 50 µM (≈ 87.3 µg/mL); MIC [12]: 1.56 µM (≈ 2.72 µg/mL); helicity [13]: 76%
CC[C@H](C)[C@H](NC(=O)[C@H](CCCNC(=N)N)NC(=O)[C@H]1CCCCNC(=N)NCCCC[C@H](NC(=O)[C@H](Cc2ccccc2)NC(=O)[C@H](Cc2c[nH]c3ccccc23)NC(=O)[C@@H]2CCCN2C(=O)[C@@H](NC(=O)[C@@H](N)Cc2ccccc2)C(C)C)C(=O)N[C@@H](CCCCN)C(=O)N[C@@H](Cc2ccccc2)C(=O)N[C@H](CC(C)C)C(=O)N1)C(=O)N[C@@H](CC(C)C)C(N)=O [Peptide 12, FVPWF{KKFlk}RIL]	19.6 µM	103%	88%	47%	11%	10%	100 ± 1%	101 ± 2%	90 ± 4%	28 ± 4%	2 ± 1%	3 ± 1%	6.25 µM (≈ 10.9 µg/mL)	1.56 µM (≈ 2.72 µg/mL)	0.39 µM (≈ 0.681 µg/mL)	6.25 µM (≈ 10.9 µg/mL)	3.12 µM (≈ 5.45 µg/mL)	6.25 µM (≈ 10.9 µg/mL)	12.5 µM (≈ 21.8 µg/mL)	1.56 µM (≈ 2.72 µg/mL)	viability at 2 h, 3.12 µM ([1]; Cell viability (%)): 101%; MIC [12]: 1.56 µM (≈ 2.72 µg/mL); helicity [13]: 63%; remaining at 4 h, 200 μM ([14]; isolated enzyme chymotrypsin, pH 7.8): ~40%; remaining at 4 h, 200 μM [14, 16]: ~80%; remaining at 24 h, 200 μM [14, 16]: ~35%; viability at 2 h, 3.12 µM ([15]; Cell viability (%)): 106%; viability at 2 h, 6.25 µM ([15]; Cell viability (%)): 104%; viability at 2 h, 12.5 µM ([15]; Cell viability (%)): 56%; viability at 2 h, 25 µM ([15]; Cell viability (%)): 14%; viability at 2 h, 50 µM ([15]; Cell viability (%)): 4%; viability at 2 h, 100 µM ([15]; Cell viability (%)): 4%; viability at 24 h, 3.12 µM ([15]; Cell viability (%)): 93%; viability at 24 h, 6.25 µM ([15]; Cell viability (%)): 86%; viability at 24 h, 12.5 µM ([15]; Cell viability (%)): 66%; viability at 24 h, 25 µM ([15]; Cell viability (%)): 14%; viability at 24 h, 100 µM ([15]; Cell viability (%)): 0%; viability at 12.5 µM ([15]; cell viability): ~60%
